Laboratory results: PMC9841533, “Microtubule-Stabilizing 1,2,4-Triazolo[1,5-a]pyrimidines as Candidate Therapeutics for Neurodegenerative Disease: Matched Molecular Pair Analyses and Computational Studies Reveal New Structure–Activity Insights” (Journal of Medicinal Chemistry, 2022)
Where two headings read alike, the source gives them in different places. Each block holds one compound with its values, some of them ahead of it.

Experiments:
[1] = test system: de-tyrosinated α-tubulin (GluTub) in brain of WT mice; experiment: Brain PD: Glu-tubulin in brain tissue after compound treatment; assay type: in vivo, mouse; conditions: WT CD-1 mice, 1 mg/kg i.p. once daily for two consecutive days
Experimental: Finally, to evaluate target engagement in the CNS, PD studies were conducted to determine compound-dependent elevations in the stable MT marker, de-tyrosinated α-tubulin (GluTub), in brain homogenates from compound-treated WT mice.
All animal protocols were approved by the University of Pennsylvania Institutional Animal Care and Use Committee (IACUC). […] Compounds were diluted from 20 or 40 mM DMSO stock solutions into 30% Kolliphor EL (Sigma-Aldrich) phosphate-buffered saline, pH 7.4. After 4 h following the second injection, mice were euthanized and cortices and hippocampi were isolated from each brain and placed in 0.2 mL of ice-cold radioimmunoprecipitation assay (RIPA) buffer (50 mM Tris, 150 mM NaCl, 5 mM EDTA, 0.5% sodium deoxycholate, 1% NP-40, 0.1% sodium dodecyl sulfate (SDS), pH 8.0) containing protease inhibitor (PI) cocktail (Sigma-Aldrich), 1 mM phenylmethylsulfonyl fluoride (PMSF) (Sigma-Aldrich), and 3 μM trichostatin A (TSA) (Sigma-Aldrich). The brain samples were homogenized with a handheld battery-operated mixer and subsequently sonicated. After centrifugation at 100,000g for 30 min at 4 °C, supernatant samples were transferred to a new tube and the pellets were resuspended in 0.15 mL of RIPA buffer and again homogenized, sonicated, and centrifuged. The supernatant from the second centrifugation was pooled with that from the first. The combined supernatant samples were assessed for protein concentration using a BCA assay (Thermo Fisher Scientific), and equal protein amounts from each brain sample underwent separation by 10% sodium dodecyl sulfate polyacrylamide gel electrophoresis (SDS-PAGE) followed by transfer onto nitrocellulose membranes essentially as previously described.[11] […] Incubation with infrared dye-conjugated secondary antibodies and subsequent imaging and quantification of the blots on the Odyssey imaging system were as described.[11]

[2] = Resazurin cell viability assay, HeLa; assay type: cell-based; conditions: human, HeLa cells, three biological replicates, read-out: HeLa CC50 ± SD
Experimental: (§1) Cell Culture. QBI293 and HeLa cells were cultured in DMEM supplemented with 10% heat-
(§2) inactivated FBS and 1% penicillin-streptomycin. Cells were grown in T175 cell culture flasks maintained
(§3) at 37 ℃ in 5% CO2 and sub-c ultured when at 60-8 0% cell confluence.
(§4) Resazurin Cell Viability Assay. Cytotoxicity in QBI293 and HeLa cells was measured using the
(§5) resazurin cell viability assay.1 Test compounds were serially diluted in DMSO and added to 96-well
(§6) polystyrene assay plates to give final assay concentrations ranging from 100 nM to 4000 nM (1 µL; 1%
(§7) total DMSO). Fresh medium was added to the assay plate (49 µL/well). QBI293 or HeLa cells were
(§8) cells/well. Assay plates were incubated at 37 °C and 5% CO2 for 48 h, followed by addition of 20 µL 0.5
(§9) mM resazurin (Alfa Aesar, Cat. B21187) in PBS to each well. Assay plates were incubated in the dark for
(§10) (1 picture or pasted object on this page, not shown here)
(§11) 4 h at 37 °C. Fluorescence was measured at 531 nm and 595 nm excitation and emission wavelengths,
(§12) respectively, using a 2104 EnVision® multilabel plate reader. The viability of each well was normalized to
(§13) positive and negative controls in each assay plate. Dose-response curves were generated and CC50 values
(§14) calculated with GraphPad Prism, version 9.3 (San Diego, CA) using a sigmoidal four parameter logistic
(§15) curve. The means ± standard deviations from three biological replicates are shown.
(§16) (1) O'Brien, J.; Wilson, I.; Orton, T.; Pognan, F. Investigation of the Alamar Blue (resazurin) fluorescent
(§17) dye for the assessment of mammalian cell cytotoxicity. Eur. J. Biochem. 2000, 267 (17), 5421-5426.

[3] = Resazurin cell viability assay, QBI293; assay type: cell-based; conditions: human, QBI293 cells, three biological replicates, read-out: QBI293 CC50 ± SD
Experimental: as §1, §2, §3, §4, §5, §6, §7, §8, §9, §10, §11, §12, §13, §14, §15, §16, §17

[4] = test system: acetylated α-tubulin (AcTub) levels in QBI293 cells; set-up: method as in PMID 26980057, PMID 33411523; conditions: activity reported in previous studies; cited from earlier work
[5] = Plasma pharmacokinetics in CD-1 mice; assay type: in vivo, mouse; conditions: male, mouse
Experimental: Studies to determine the pharmacokinetic properties of compounds 53 and 60 were conducted at Touchstone Biosciences (Plymouth Meeting, PA). For the determination of plasma pharmacokinetics, three male CD-1 mice (2–3 months of age) were injected i.v. (tail vein) with test compound at a dose of 5 mg/kg in a solution of 10% DMSO, 40% polyethylene glycol, and 50% water, and another three male CD-1 mice received oral gavage dosing of 60 formulated as above at a dose of 20 mg/kg. Blood samples were collected from the saphenous or submandibular veins at multiple time points after dosing and collected in Greiner MiniCollect K2EDTA tubes. Compound levels in plasma were determined by LC-MS/MS, using protocols similar to those previously described.[16],[22]

[6] = test system: total α-tubulin (α-Tub) levels in QBI293 cells; experiment: QBI293 cell assay: total α-tubulin ELISA; assay type: cell-based
Procedure, shortened: (§18)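 AcTub and α-Tub were quantified by ELISA in whole-cell extracts normalized by BCA protein and expressed relative to vehicle. AcTub changes were also scaled to a 100 nM reference stabilizer control.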

[7] = test system: acetylated α-tubulin (AcTub) levels in QBI293 cells; experiment: QBI293 cell assay of MT stabilization: acetylated α-tubulin ELISA; assay type: cell-based
Procedure, shortened: as §18

[8] = Brain-to-plasma ratio in mice; assay type: in vivo; conditions: mouse, ip, 1 h post-administration, i.p. 1.5 mg/kg, read-out: brain-to-plasma ratio (B/P)
[9] = test system: total tubulin levels in HeLa cells; set-up: method as in earlier work; conditions: 16 h incubation, ref 13 (Yang et al.); cited from earlier work

SMILES: C[C@@H](Nc1c(-c2c(F)cc(C#N)cc2F)c(Cl)nc2ncnn12)C(C)(C)C [Compound 68]
brain GluTub (GluTub-to-total α-Tub ratio) relative to vehicle-treated mice [1]: significant elevations in brain GluTub
CC50 at 48 h [2]: 41.7 ± 3 nM
CC50 at 48 h [3]: 30.7 ± 5.2 nM
Class (cellular phenotype) [4]: I

Vd at 24 h ([5]; iv, i.v. 5 mg/kg): 4.8 L/kg
clearance at 24 h ([5]; iv, i.v. 5 mg/kg): 8.2 mL/min/kg
half-life ([5]; iv, i.v. 5 mg/kg, read-out: half-life (T1/2)): > 6 h
half-life at 24 h ([5]; iv, i.v. 5 mg/kg, read-out: half-life (T1/2) (converted)): 6.8 h
bioavailability ([5]; oral, 5 mg/kg i.v. and 20 mg/kg p.o., read-out: oral bioavailability (F)): > 50%
bioavailability at 24 h ([5]; po, 5 mg/kg i.v. and 20 mg/kg p.o., read-out: oral bioavailability (F)): 56%
Kp at 1 h [8]: ~0.5
SMILES: C[C@@H](Nc1c(-c2c(F)cc(C#CCCN(C)C)cc2F)c(Cl)nc2ncnn12)C(C)(C)C [Compound 60, (R)-5-Chloro-6-(4-(4-(dimethylamino)but-1-yn-1-yl)-2,6-difluorophenyl)-N-(3,3-dimethylbutan-2-yl)-[1,2,4]triazolo[1,5-a]pyrimidin-7-amine]
brain GluTub (GluTub-to-total α-Tub ratio) relative to vehicle-treated mice [1]: significant elevations in brain GluTub
fold induction at 1 µM ([6]; 4 h, 1 uM compound, read-out: AlfaTub (1uM)): 0.94
fold induction at 10 µM ([6]; 4 h, 10 uM compound, read-out: AlfaTub (10 uM)): 0.98
fold induction at 1 µM ([6]; 4 h incubation, 1 μM, read-out: α-Tub 1 μM, fold-change compared to vehicle (DMSO)-treated cells): 0.94 ± 0.01
fold induction at 10 µM ([6]; 4 h incubation, 10 μM, read-out: α-Tub 10 μM, fold-change compared to vehicle (DMSO)-treated cells): 0.98 ± 0.01
AcTub (1 uM - normalized) ([7]; 1 uM compound, normalized): 1.75
AcTub (10 uM - normalized) ([7]; 10 uM compound, normalized): 1.28
fold induction at 1 µM ([7]; 4 h, 1 uM compound, read-out: AcTub (1uM)): 9.5
fold induction at 10 µM ([7]; 4 h, 10 uM compound, read-out: AcTub (10 uM)): 6.94
AcTub 1 μM, fold-change compared to positive control compound 5 (100 nM) (in parentheses) ([7]; 4 h incubation, 1 μM): 1.75 fold-change
fold induction at 1 µM ([7]; 4 h incubation, 1 μM, read-out: AcTub 1 μM, fold-change compared to vehicle (DMSO)-treated cells): 9.5 ± 0.34
AcTub 10 μM, fold-change compared to positive control compound 5 (100 nM) (in parentheses) ([7]; 4 h incubation, 10 μM): 1.28 fold-change
fold induction at 10 µM ([7]; 4 h incubation, 10 μM, read-out: AcTub 10 μM, fold-change compared to vehicle (DMSO)-treated cells): 6.94 ± 0.22

SMILES: C[C@H](Nc1c(-c2c(F)cc(F)cc2F)c(Cl)nc2ncnn12)C(F)(F)F [Compound 2]
total tubulin levels [9]: reduction in total tubulin levels
Class (cellular phenotype) [4]: I
